Laboratory results published in patent US11180479B2 (HAPLOGEN GmbH, priority 2017, dated 2021).
pEC50, pIC50: −log10 of the molar value.

How the values were obtained:
PLA2G16 = target: T1, PLA2G16 (Homo sapiens, UniProt P53816); test: Enzyme activity assay for PLA2G16 (Red/Green BODIPY PC-A2 fluorescence); type: biochemical; conditions: His-tagged PLA2G16, 4 min pre-incubation, compound 2 nM to 50 μM; first symbol in parentheses
T1 construct: Hexa-His (N); made in house; host or cells: E. coli BL21(DE3)
T1 sequence (P53816 1-162): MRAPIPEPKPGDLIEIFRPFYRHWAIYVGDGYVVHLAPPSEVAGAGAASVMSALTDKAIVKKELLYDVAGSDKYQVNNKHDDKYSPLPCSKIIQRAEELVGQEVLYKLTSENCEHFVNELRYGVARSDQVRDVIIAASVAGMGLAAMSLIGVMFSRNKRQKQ
Text: Purification and Enzyme Activity Assay for PLA2G16
A cDNA for PLA2G16 (NM_007069) was custom-synthesized by Genscript (Piscataway, USA) and inserted into a pET-based bacterial expression vector [Moffatt, B. A. and Studier, F. W. (1986) J. Mol. Biol. 189, 113-130; Rosenberg, A. H., Lade, B. N., Chui, D., Lin, S., Dunn, J. J., and Studier, F. W. (1987) Gene 56, 125-135], enabling the expression of N-terminally Hexa-His-tagged PLA2G16. E. coli BL21(DE3) (Agilent) were transformed with pET-His-PLA2G16 according to the manufacturer's instructions and plated on Carbenicillin-containing agar plates (final concentration: 100 μg/mL). A single clone was inoculated in 100 mL LB medium supplemented with 100 μg/mL Carbenicillin and the inoculated culture was grown at 37° C. overnight in a rotary shaker. On the next day, the bacterial culture was diluted in LB medium supplemented with 100 μg/mL Carbenicillin (30 mL overnight culture in 800 mL total culture volume). Bacteria were grown at 37° C. until the OD600 reached 0.6. Gene expression was induced by addition of 1 mM isopropyl-β-D-thiogalactopyranosid (IPTG) for 2 h at 18° C. Subsequently, bacteria were harvested by centrifugation (15 min; 10,000×g; 4° C.) and frozen at −80° C. The bacterial pellet was resuspended in Buffer A (50 mM Tris/HCl pH 7.5, 500 mM NaCl, 5% glycerol, 5 mM β-Mercaptoethanol and 1 mM PMSF) and lysed by addition of 1 mg/mL lysozyme (Sigma Aldrich) and 100 μg/mL DNasel-(Roche). The sample was incubated at 30° C. for 30 min to allow lysis to occur. Then, the lysate was cleared by centrifugation (15,000×g, 15 min, 4° C.) and incubated with 1.5 mL Ni-NTA agarose suspension (Qiagen) for 60 min at 4° C. The Ni-NTA agarose was washed with 10 mL Buffer A. Bound protein was eluted by applying a manual gradient of Buffer A supplemented with increasing concentrations of imidazole (Sigma Aldrich; 25/50/75/100/250 mM). Purified fractions were analyzed by SDS-PAGE followed by Coomassie staining to assess the purity.
Activity of the protein was assessed as follows:
Red/Green BODIPY® PC-A2 (Invitrogen, 1 mM in DMSO) was mixed with equal volumes of 1,2-Dioleoyl-sn-glycero-3-phosphocholine (DOPC; Sigma Aldrich, 10 mM in Ethanol) and 1,2-Dioleoyl-sn-glycero-3-phospho-rac-(1-glycerol) (DOPG; Sigma Aldrich, 10 mM in Ethanol) and 0.5 volumes of Cholesterol (CHOL; Sigma Aldrich, 10 mM in Ethanol) and vortexed for 5 s. The mixture (Red/Green BODIPY® PC-A2/DOPC/DOPG/CHOL) was diluted 1:91.4 in activity assay buffer (50 mM Tris/HCl pH 8.5, 100 mM NaCl) using a small-orifice pipette tip under constant vortexing. In the following, this preparation will be referred to as the “substrate solution”.
In order to evaluate their inhibitory potential, compounds were dissolved at 10 mM concentration in DMSO and directly spotted into assay plates (Corning, Cat. No. 3576) using acoustic liquid transfer (Labcyte Echo 525). Each compound was spotted at increasing concentrations, ranging from 2 nM to 50 μM (concentration in the final assay volume). 50 μl of PLA2G16 enzyme solution (diluted in activity buffer, supplemented with 5 mM L-Glutathione; Sigma Aldrich) was pre-incubated with compounds for 4 min., followed by addition of 50 μl of substrate solution. Fluorescence was recorded immediately after substrate addition for a total time of 10 min. using a SpectraMax M5 multimode reader (Excitation wavelength: 480 nm, emission wavelength: 530 nm). The relative increase of fluorescence over time is referred to as the enzyme activity. Half-maximal inhibitory concentrations (IC50) were derived by non-linear regression analysis using the drc package in R (R Development. Core Team, 2005).

[1] = test system: picornaviruses (CVB1, HRV-A2, HRV-A23, EV-68); test: Anti-picornavirus cytopathic effect (CPE) reduction assay on HeLa H1 cells; type: cell-based; conditions: 48 h, category from averaging EC50 values of four picornaviruses (CVB1, HRV-A2, HRV-A23, EV68), second symbol in parentheses
Method: Anti-Picornavirus Assay in Mammalian Cell Culture
The antiviral activity of selected compounds was tested using a cytopathic effect (CPE) reduction assay on HeLa H1 cells (ATCC CRL-1958). Briefly, cells were seeded in 96-well dishes (2×10^4 cells/well) in DMEM medium (Life technologies) supplemented with 10% FBS and PenStrep solution (100 U/mL Penicillin and 100 μg/mL streptomycin) and incubated at 37° C., 5% CO2 overnight. The next day, cells were pre-treated with serial dilutions of the compound in DMEM medium supplemented with 2% FBS and PenStrep for 2 h at 37° C., 5% CO2. Next, cells were infected with virus (CVB1, HRV-A2, HRV-A23, EV-68) at an multiplicity of infection (MOI) which results in a complete virus-induced CPE within 2 days in control wells (infected and vehicle-treated). After 48 h, supernatants were aspirated and 50 μl/well of CellTiterBlue reagent (Promega) diluted 1:5 in DMEM+2% FBS, was added to the cells. Plates were returned to the incubator and allowed to develop for 1.5 h. After that, plates were equilibrated to RT and subsequently, fluorescence was recorded (Excitation wavelength: 560 nm; emission wavelength: 590 nm) using a SpectraMax M5 multimode plate reader. Viability of cells was calculated according to the formula: V=(RFUCpd−RFUVeh/(RFUM−RFUVeh), where RFUCpd refers to infected and compound-treated cells, RFUVeh to infected and vehicle-treated cells and RFUM to uninfected and vehicle treated cells. Half-maximal effective concentrations (EC50) were calculated by non-linear regression analysis using the drc package in R (R Development. Core Team, 2005). EC50 categories as presented in Table 2 were calculated by averaging the EC50 values from four picornaviruses (CVB1, HRV-A2, HRV-A23, EV68).

SMILES	pIC50 (PLA2G16)	pEC50 [1]
Cn1cnc(CN2C[C@H](C(=O)C(=O)NC3CC3)[C@@H](Cc3ccc(F)cc3)C2=O)n1 (racemic) [FP-51, Rac-N-cyclopropyl-2-[(3R,4R)-4-[(4-fluorophenyl)methyl]-1-[(1-methyl-1H-1,2,4-triazol-3-yl)methyl]-5-oxopyrrolidin-3-yl]-2-oxoacetamide]	> 6.00	5.00 to 6.00
O=C(NCC(F)(F)F)C(=O)[C@H]1CNC(=O)[C@@H]1c1ccccc1 (racemic) [FP-22, Rac-2-oxo-2-[(3R,4S)-5-oxo-4-phenylpyrrolidin-3-yl]-N-(2,2,2-trifluoroethyl)acetamide]	> 6.00	5.00 to 6.00
O=C(NC1CC1)C(=O)[C@H]1CNC(=O)[C@@H]1Cc1ccccc1 (racemic) [FP-2, Rac-2-[(3R,4R)-4-benzyl-5-oxopyrrolidin-3-yl]-N-cyclopropyl-2-oxoacetamide]	> 6.00	> 6.00
CCNC(=O)C(=O)[C@H]1CN(CC2CCOCC2)C(=O)[C@@H]1Cc1ccccc1 (racemic) [FP-33, Rac-2-[(3R,4R)-4-benzyl-1-[(oxan-4-yl)methyl]-5-oxopyrrolidin-3-yl]-N-ethyl-2-oxoacetamide]	> 6.00	> 6.00
N#CCCNC(=O)C(=O)[C@H]1CNC(=O)[C@@H]1Cc1ccccc1 (racemic) [FP-6, Rac-2-[(3R,4R)-4-benzyl-5-oxopyrrolidin-3-yl]-N-(2-cyanoethyl)-2-oxoacetamide]	> 6.00	5.00 to 6.00
O=C(NC1CC1)C(=O)[C@H]1CN(Cc2ncccn2)C(=O)[C@@H]1Cc1ccccc1 (racemic) [FP-35, Rac-2-[(3R,4R)-4-benzyl-5-oxo-1-[(pyrimidin-2-yl)methyl]pyrrolidin-3-yl]-N-cyclopropyl-2-oxoacetamide]	> 6.00	5.00 to 6.00
O=C(NCC1CCC1)C(=O)[C@H]1CNC(=O)[C@@H]1c1ccccc1 (racemic) [FP-21, Rac-N-(cyclobutylmethyl)-2-oxo-2-[(3R,4S)-5-oxo-4-phenylpyrrolidin-3-yl]acetamide]	> 6.00	> 6.00
O=C(NC1CC1)C(=O)[C@H]1CN(c2cc(Cl)cc(=O)[nH]2)C(=O)[C@@H]1Cc1ccccc1 (racemic) [FP-71, Rac-2-[(3R,4R)-4-benzyl-1-(4-chloro-6-oxo-1,6-dihydropyridin-2-yl)-5-oxopyrrolidin-3-yl]-N-cyclopropyl-2-oxoacetamide]	> 6.00	> 6.00
O=C(NC1CCOCC1)C(=O)[C@H]1CNC(=O)[C@@H]1Cc1ccccc1 (racemic) [FP-7, Rac-2-[(3R,4R)-4-benzyl-5-oxopyrrolidin-3-yl]-N-(oxan-4-yl)-2-oxoacetamide]	> 6.00	5.00 to 6.00
Cc1cc(CN2C[C@H](C(=O)C(=O)NC3CC3)[C@@H](c3ccccc3)C2=O)no1 (racemic) [FP-100, Rac-N-cyclopropyl-2-[(3R,4S)-1-[(5-methyl-1,2-oxazol-3-yl)methyl]-5-oxo-4-phenylpyrrolidin-3-yl]-2-oxoacetamide]	> 6.00	5.00 to 6.00
O=C(NCC(F)F)C(=O)[C@@H]1CNC(=O)[C@H]1Cc1ccccc1 (single isomer, unassigned) [FP-84]	5.00 to 6.00	< 5.00
O=C(NCC(F)F)C(=O)[C@H]1CNC(=O)[C@@H]1Cc1ccccc1 (single isomer, unassigned) [FP-83]	> 6.00	> 6.00
Cn1ncnc1CN1C[C@@H](C(=O)C(=O)NC2CC2)[C@H](Cc2ccccc2)C1=O (single isomer, unassigned) [FP-97]	5.00 to 6.00	< 5.00
O=C(NC1CC1)C(=O)[C@H]1CN(c2ccncn2)C(=O)[C@@H]1Cc1ccccc1 (racemic) [FP-61, Rac-2-[(3R,4R)-4-benzyl-5-oxo-1-(pyrimidin-4-yl)pyrrolidin-3-yl]-N-cyclopropyl-2-oxoacetamide]	> 6.00	5.00 to 6.00
O=C(NC1CC1)C(=O)[C@H]1CN(c2cnccn2)C(=O)[C@@H]1Cc1ccccc1 (single isomer, unassigned) [FP-93]	> 6.00	> 6.00
O=C(NC1CC1)C(=O)[C@@H]1CN(c2cncnc2)C(=O)[C@H]1Cc1ccccc1 (single isomer, unassigned) [FP-90]	> 6.00	5.00 to 6.00
O=C(NCC1CC1)C(=O)[C@H]1CNC(=O)[C@@H]1c1ccccc1 (racemic) [FP-10, Rac-N-(cyclopropylmethyl)-2-oxo-2-[(3R,4S)-5-oxo-4-phenylpyrrolidin-3-yl]acetamide]	> 6.00	> 6.00
CCNC(=O)C(=O)[C@H]1CN(c2cncnc2)C(=O)[C@@H]1Cc1ccccc1 (racemic) [FP-55, Rac-2-[(3R,4R)-4-benzyl-5-oxo-1-(pyrimidin-5-yl)pyrrolidin-3-yl]-N-ethyl-2-oxo-acetamide]	> 6.00	> 6.00
CNC(=O)CN1C[C@H](C(=O)C(=O)NCC(C)C)[C@@H](Cc2ccccc2)C1=O (racemic) [FP-43, Rac-2-[(3R,4R)-4-benzyl-1-[(methylcarbamoyl)methyl]-5-oxopyrrolidin-3-yl]-N-(2-methylpropyl)-2-oxoacetamide]	> 6.00	5.00 to 6.00
O=C(NC1CC1)C(=O)[C@H]1CN(c2cncnc2)C(=O)[C@@H]1c1ccccc1 (racemic) [FP-63, Rac-N-cyclopropyl-2-oxo-2-[(3R,4S)-5-oxo-4-phenyl-1-(pyrimidin-5-yl)pyrrolidin-3-yl]acetamide]	> 6.00	5.00 to 6.00
CC(C)NC(=O)C(=O)[C@H]1CNC(=O)[C@@H]1Cc1ccccc1 (racemic) [FP-5, Rac-2-[(3R,4R)-4-benzyl-5-oxopyrrolidin-3-yl]-2-oxo-N-(propan-2-yl)acetamide]	> 6.00	> 6.00
NC(=O)c1ccc(CN2C[C@H](C(=O)C(=O)NC3CC3)[C@@H](Cc3ccccc3)C2=O)cc1 (racemic)	> 6.00	
